Results reported in patent US20100099756A1, “USES OF INCENSOLE, INCENSOLE ACETATE AND DERIVATIVES THEREOF” (YISSUM RESEARCH DEVELOPMENT COMPANY OF THE HEBREW …, priority 2006, published 2010).

Tests used:
[1] = system: IκBα degradation; test: IκBα degradation in TNFα-stimulated HeLa cells (Western blot); format: cell-based; settings: HeLa cells pre-incubated 2 hrs, then TNFα 20 ng/ml for 20 minutes
Experimental: HeLa cells were pre-incubated with IA (FIG. 1A) or IN (FIG. 1B) at the indicated concentrations for 2 hrs prior to 20 minutes exposure to TNFα (20 ng/ml). At least three more experiments were repeated with highest indicated dose, resulting similarly.
IκBα Degradation. HeLa cells were pre-incubated with IA (50 μg/ml, dissolved in ethanol) for 2 hrs, and then stimulated for 20 minutes with TNFα (20 ng/ml, Emeryville, Calif., USA). After removing the slides from plates for immonostaining (see below), proteins were extracted from remaining cells in the plates. Proteins were extracted from cells in NP-40 lysis buffer. Total protein concentration was determined using the Bradford method. Lysates were then analyzed either by Western blotting (WB).
Western Blot (WB). Following separation by SDS-PAGE, proteins were blotted to a polyvinylidene difluoride (PVDF) membrane (Millipore). The membrane was blocked in 5% (w/v) milk powder and then incubated in TBST containing the primary antibody and 2% (w/v) milk powder. All phospho-specific antibodies were purchased from Cell signaling Inc. αIκBa, αp65 and αCOX2 antibodies from Santa Cruz Inc. (California, USA). After binding of an appropriate secondary antibody coupled to horseradish peroxidase, proteins were visualized by enhanced chemiluminiscence according to the instructions of the manufacturer (Amersham Lifescience).

[2] = system: NF-κB (p65 sub-unit); test: p65 subunit immunostaining, nuclear accumulation of NF-κB in HeLa cells; format: cell-based; settings: TNFα stimulation, IA 140 μM
Experimental: (A) IA inhibits IKK phosphorylation. HeLa cells were stimulated with TNFα (20 ng/ml for 20 minutes) in the absence or presence of IA (140 μM) as shown. Whole cell extracts were prepared and analyzed for the phosphoryation of IKKα and IKKβ by Western blotting (WB). (B) HeLa cells were stimulated with TNFα (20 ng/ml for 20 minutes) in the absence or presence of IA (140 μM). Cells were fixed and then stained with rabbit anti-p65 followed by anti-rabbit Rhodamine Red-labeled secondary Ab. and with DAPI for nuclei location (not shown). (B1) HeLa cells, no treatment; (B2) HeLa cells +IA; (B3) HeLa cells +TNF; (B4) HeLa cells +IA+TNF. The cells were examined under an Axioscope Zeiss microscope with a plan-Neofluor * 60 lens. Results of one of three independent experiments are shown.
p65 Subunit Immunostaining. HeLa Cells were preincubated with IA and then stimulated with TNFα as described in the IκBα degradation assay above. Cells were then fixed with formaldehyde 1%, permeabilized with 0.25% Triton X-100, stained with rabbit anti-p65 (Santa Cruz, Calif., USA) and visualized with anti-rabbit Rhodamine Red-labeled secondary antibody (Jackson ImmunoResearch, Baltimore, USA). Cells were also stained with DAPI (blue) for nuclei location (data not shown). The cells were examined under an Axioscope Zeiss microscope with a plan-Neofluor * 60 lens.

[3] = system: inflamed paw; test: Inflamed paw model (carrageenin) in mice; format: in vivo, Sabra female mice
Experimental: IA (50 mg/kg) or vehicle were injected i.p. to Sabra female mice (5 per group) 30 min before induction of the inflammatory stimulus. Hind paws were then injected with 50 μl of saline or λ-carrageenin (4%). Ensuing inflammatory swelling was measured by increase in foot volume in a plethysmometer. […] There were highly significant effects of treatment (F=11.7, df=3.64, P<0.001). *, different from IA +saline, P<0.05; **, ***, different from vehicle+saline at P<0.01, P<0.001 respectively; #, different from vehicle+carrageenin, P<0.05.
Inflamed Paw Model. Sabra female mice were used to assess the response to IA or vehicle in an in vivo model of inflammation. Drug or vehicle was administered 30 min before induction of the inflammatory stimulus. Mice (5 per group) were injected i.p. with vehicle (isopropanol:Emulphor:saline=1:1:18) or with vehicle containing IA (50 mg/kg, i.p). Emulphor (a polyethoxylated vegetable oil) is a commercial emulsifier. Hind paws were injected with 50 μl of saline (left or right alternatively) or λ-carrageenin (4%, right or left alternatively), using 26G needles. Ensuing inflammatory swelling was measured by increase in foot volume in a plethysmometer (Ugo-Basile, Italy). Paw volume as well as redness (as a measure of erythema) and licking (as a measure of pain) were assayed before carrageenin application and every 60 min until 4 hrs.

[4] = system: closed head injury; test: Neurological severity score (NSS) recovery after closed head injury (CHI); format: in vivo, mice; settings: 50 mg/kg i.p.
Experimental: This effect was sustained from 24 h to 21 days following injury as determined by the Mann-Whitney test (n=9-10 per group; * p<0.01; **p<0.001, as compared to vehicle treated, at the same day). (B) Mice were subjected to the object recognition test (Example 6) 3, 7, 14 and 21 days after CHI. The absolute time spent exploring each of the two objects was recorded and the % time calculated. At baseline (bl), when presented with two identical objects, exploration time of each object was about 50% in both groups. In the test (T) situation, after one of the objects was replaced by a novel one the % time spent exploring the new object was calculated.
At 1 h after CHI, the functional status of the mice was evaluated according to a set of 10 neurobehavioral tasks (neurological severity score, NSS) that tests reflexes, alertness coordination, and motor abilities. One point was awarded for absence of reflex or failure to perform a particular task. […] Mice were equally divided to vehicle\ IA groups according to their NSS scores. Only mice with NSS>4 at 1 h after injury were included in the study. […] Recovery (ΔNSSt) was defined as the difference between NSS1h and NSS measured at any later time point and was determined at several time points up to 21 days following CHI.

[5] = system: anxiety-like behavior; test: Elevated plus maze; format: in vivo, female Sabra mice; settings: 50 mg/kg i.p.
[6] = system: receptors known to be involved in psychoactivity; test: Interaction with receptors involved in psychoactivity

CC(=O)OC1CC/C(C)=C/CC/C(C)=C/CC2(C(C)C)CCC1(C)O2 (centres unmarked) [IA, incensole acetate]
IκBα degradation [1]: inhibited IκBα degradation in a dose dependent manner
nuclear accumulation of NF-κB (p65) [2]: inhibited the nuclear accumulation of NF-κB
inflammation (inflamed paw volume) ([3]; 50 mg/kg i.p. 30 min before carrageenin, 4 hrs period): significantly reduced inflammation
other inflammatory parameters, such as redness and pain ([3]; 50 mg/kg i.p., data not shown): significantly reduced
ΔNSS (recovery of motor ability) ([4]; 24 h after injury, P=0.002 vs vehicle): 1.00±0.12
ΔNSS at subsequent time points ([4]; up to 3 weeks post injury, vs vehicle): significantly higher
time in open arms of the elevated plus maze [5]: potent anxiolytic-like effect
interaction with receptors known to be involved in psychoactivity [6]: does not interact
